Assay results as given in US9422254B2, “Methoxyacrylate-based fungicide and methods for preparing and using the same” (priority 2008, dated 2016).

Assays:
[1] = test system: Sphaerotheca uliginea; experiment: Fungicidal activity on potted cucumber, powdery mildew; format: in vivo
Description: 1. Fungicidal Activity Assay on Potted Plants at Room Temperature
Take cucumber downy mildew and powdery mildew as examples, the assay were carried out as follows:
2) Sphaerotheca uliginea: Pathogen of Cucumber Powdery Mildew
A cucumber seedling having uniform growth status and in the true leaf stage was collected, sprayed with the compound of Formula (I), and dried in the shade for 24 hrs. Fresh spore was collected from cucumber leaves infected by Sphaerotheca uliginea, filtered with a double-layer gauze, and prepared into a suspension (1.0×10^5 cells/mL). The suspension was sprayed to the dried cucumber seedling. Subsequently, the inoculated seedling was dried naturally and cultured under light in a thermostatic chamber (21-23° C.). 7-8 days later, compared with the blank control, the disease of the cucumber seedlings was graded. Based on the resultant disease index, the efficacy was calculated.
The grading standard follows “Guidelines on efficacy evaluation of pesticides”, and the efficacy is calculated on the basis of the disease index.

[2] = test system: Phytophthora infestans; experiment: microbe, parasite or virus in culture; format: cell-based; details: read-out: Inhibition rate (%)
[3] = test system: Helminthosporium torulosum; experiment: microbe, parasite or virus in culture; format: cell-based; details: Corynespora torulosa, read-out: Inhibition rate (%)
[4] = test system: Bipolaris sorokiniana; experiment: microbe, parasite or virus in culture; format: cell-based; details: read-out: Inhibition rate (%)
[5] = test system: Fusarium oxysporum; experiment: microbe, parasite or virus in culture; format: cell-based; details: read-out: Inhibition rate (%)
[6] = test system: B. cinerea; experiment: In vitro inhibition, pathogens from tropical plants; format: cell-based; details: Botrytis cinerea
Description: (§1) 5 wt % formulation of the active compound of Formula (I) was prepared into a solution (300 mg/L). To a sterilized Erlenmeyer flask, 2 mL of the solution and 18 mL of PDA culture medium (50° C.) were added. The mixture was shaken uniformly and dumped into two dishes whose diameter was 9 cm to yield two toxic PDA culture mediums having a concentration of 30 mg/L. Various cultured pathogens were punched at the edge of colony by a puncher having a diameter of 5 mm respectively, and the obtained pieces were transferred to the center of the toxic PDA culture medium by an inoculating needle and cultured in an incubator at 25° C. Repeat the above steps. According to the growth status of CK colony, the colony diameter of pathogens was measured by crossing method with a caliper and thereby a corrected inhibition percentage was calculated.
(§2) For each colony, diameter was measured twice by crossing method and the average was practicable. The colony growth inhibition rate was calculated as follows: Colony growth inhibition rate %=(diameter of CK colony−diameter of target colony)×100/diameter of CK colony
(§3) Following the above method, as targets 17 pathogens originated from tropical plants were tested. The pathogens were Rhizopus sp., Aspergillus, Colletotrichum gloeosporioides Penz, Banana Fusarium wilt, Colletouichum coccodes, Hughas, B. heveas, Cucumber mosaic virusstrain banana, Banana Sigatoka Leaf Spot Disease, Colletotrichum gloeosporioides, Colletotrichum musae (Berk & Curt) Arx, Botryodiplodia theobromae, Cladosporium cucumerinum Ellis et Arthur, Periconia hevenae, Colletotrichum gloeosporioides, B. cinerea, Diplodia natalensis, and Curvularia.

[7] = test system: Cladosporium cucumerinum Ellis et Arthur; experiment: as above; format: cell-based
Description: as §1, §2, §3

[8] = test system: Colletotrichum musae (Berk & Curt) Arx; experiment: as above; format: cell-based
Description: as §1, §2, §3

[9] = test system: Curvularia; experiment: as above; format: cell-based
Description: as §1, §2, §3

[10] = test system: Periconia hevenae; experiment: as above; format: cell-based
Description: as §1, §2, §3

[11] = test system: Pepper phytophthora blight (strain NSGP); experiment: In vivo micro-screening assay; parameters: species or system Phytophthora capsici; details: root-irrigation
Excerpt: 3. In Vivo Micro-Screening Assay

[12] = Acute skin test; format: in vivo, rat; details: in vivo, topical
Description: (§4) The toxicological indexes of the compound were tested following the standard GB15670-1995 “Toxicological test methods of pesticides for registration” by Tongji Medical College, Huazhong University of Science and Technology.

[13] = test system: rat; experiment: Acute skin test; format: in vivo; details: rat
Description: as §4

[14] = test system: rabbit's eye; experiment: Eye stimulation test; format: in vivo
Description: as §4

[15] = test system: bee; experiment: Acute contact toxicity test on bee; format: in vivo
Description: After acute toxicity and Ames test had been finished, environmental toxicity test was conducted following “Guideline for Environmental Safety Evaluation of Chemical Pesticides” of Agriculture Ministry of China by Shenyang Chemical Research Institute/Supervision and Test Center for Pesticide Safety Evaluation and Quality Control.

[16] = biological target: succinate-cytochrome C oxidase (SCO) (Sus scrofa, UniProt P24964); experiment: Enzyme activity test, SCO; format: biochemical; details: azoxystrobin as control agent
Sequence of succinate-cytochrome C oxidase (SCO) (P24964 whole entry): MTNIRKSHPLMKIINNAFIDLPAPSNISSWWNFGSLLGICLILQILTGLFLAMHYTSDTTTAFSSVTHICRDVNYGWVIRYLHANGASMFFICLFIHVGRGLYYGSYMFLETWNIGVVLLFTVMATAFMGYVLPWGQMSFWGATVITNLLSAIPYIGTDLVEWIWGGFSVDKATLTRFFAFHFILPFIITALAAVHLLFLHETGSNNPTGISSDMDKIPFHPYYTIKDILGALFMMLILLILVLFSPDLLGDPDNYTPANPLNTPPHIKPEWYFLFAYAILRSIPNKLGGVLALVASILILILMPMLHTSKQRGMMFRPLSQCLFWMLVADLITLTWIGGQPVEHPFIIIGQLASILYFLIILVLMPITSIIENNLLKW
Description: Take NADH oxidase (NOX), succinate-cytochrome C oxidase (SCO), and Complex III as target enzymes, the inhibitory activity of the compound of Formula (I) was tested.
^a NOX is generally used to detect an inhibitor of Complex I and Complex III; SCO is generally used to detect an inhibitor of Complex II and Complex III. Thus, an inhibitor of Complex III should have inhibitory activity on the two enzymes.

[17] = 0.1 mg/L, read-out: Inhibition rate (%)
[18] = 1 mg/L, read-out: Inhibition rate (%)
[19] = 5 mg/L, read-out: Inhibition rate (%)
[20] = 10 mg/L, read-out: Inhibition rate (%)
[21] = 20 mg/L, read-out: Inhibition rate (%)
[22] = 15 mg/L, read-out: Inhibition rate (%)

Structure (SMILES): CO/C=C(/C(=O)OC)c1ccccc1CSc1nc2cc(OC)ccc2s1 [Compound of Formula (I), (E)-methyl 3-methoxy-2-(2-((5-methoxy-benzothiazol-2-ylthio)methyl)phenyl)acrylate]
- Efficacy (%) ([1]; 3.125 mg/L, secondary screening): 85.24%
- Efficacy (%) ([1]; 6.25 mg/L, secondary screening): 97.22%
- Efficacy (%) ([1]; 12.5 mg/L, Table 1): 97.22%
- Efficacy (%) ([1]; 12.5 mg/L, secondary screening): 98.50%
- Efficacy (%) ([1]; 25 mg/L, Table 1): 100%
- Efficacy (%) ([1]; 25 mg/L, secondary screening): 100%
- Efficacy (%) ([1]; 50 mg/L, Table 1): 100%
- Efficacy (%) ([1]; 50 mg/L, secondary screening): 100%
- Efficacy (%) ([1]; 100 mg/L, Table 1): 100%
- Efficacy (%) ([1]; 200 mg/L, Table 1): 100%
- preventive effect ([1]; powdery mildew): good preventive effect
- EC50 ([1]; secondary screening): 0.96 mg/L
- EC90 ([1]; secondary screening): 3.87 mg/L
- inhibition at 0.3 µg/mL [2]: 15.3%
- inhibition at 3 µg/mL [2]: 33.7%
- inhibition at 30 µg/mL [2]: 38%
- inhibition at 0.3 µg/mL ([3]; 0.3 mg/L): 11.3%
- inhibition at 3 µg/mL ([3]; 3 mg/L): 18.4%
- inhibition at 30 µg/mL ([3]; 30 mg/L): 21.4%
- inhibition at 0.3 µg/mL ([4]; 0.3 mg/L): 18.8%
- inhibition at 3 µg/mL ([4]; 3 mg/L): 40.6%
- inhibition at 30 µg/mL ([4]; 30 mg/L): 43.8%
- inhibition at 0.3 µg/mL ([5]; 0.3 mg/L): 29.4%
- inhibition at 3 µg/mL ([5]; 3 mg/L): 36.1%
- inhibition at 30 µg/mL ([5]; 30 mg/L): 43.7%
- EC50 [6]: 1 mg/L
- inhibition at 0.1 µg/mL [6, 17]: 12.8%
- inhibition at 0.5 µg/mL ([6]; 0.5 mg/L, read-out: Inhibition rate (%)): 35.1%
- inhibition at 1 µg/mL [6, 18]: 54.5%
- inhibition at 5 µg/mL [6, 19]: 73.3%
- inhibition at 10 µg/mL [6, 20]: 88.1%
- EC50 [7]: 4.84 mg/L
- inhibition at 1 µg/mL [7, 18]: 6.77%
- inhibition at 2.5 µg/mL ([7]; 2.5 mg/L, read-out: Inhibition rate (%)): 28.3%
- inhibition at 5 µg/mL [7, 19]: 55%
- inhibition at 10 µg/mL [7, 20]: 72.1%
- inhibition at 20 µg/mL [7, 21]: 84.9%
- EC50 [8]: 1.66 mg/L
- inhibition at 0.1 µg/mL [8, 17]: 19.1%
- inhibition at 1 µg/mL [8, 18]: 37.2%
- inhibition at 5 µg/mL [8, 19]: 64.5%
- inhibition at 10 µg/mL [8, 20]: 78.7%
- inhibition at 20 µg/mL [8, 21]: 85.8%
- EC50 [9]: 0.505 mg/L
- inhibition at 0.1 µg/mL [9, 17]: 28.8%
- inhibition at 1 µg/mL [9, 18]: 63.5%
- inhibition at 5 µg/mL [9, 19]: 75.9%
- inhibition at 10 µg/mL [9, 20]: 76.6%
- inhibition at 15 µg/mL [9, 22]: 80.6%
- EC50 [10]: 0.378 mg/L
- inhibition at 0.1 µg/mL [10, 17]: 33.2%
- inhibition at 1 µg/mL [10, 18]: 66.4%
- inhibition at 5 µg/mL [10, 19]: 74.2%
- inhibition at 10 µg/mL [10, 20]: 77.6%
- inhibition at 15 µg/mL [10, 22]: 81.7%
- Efficacy (%) ([11]; 100 mg/L): 26.22%
- Spot area (mm^2) ([11]; 100 mg/L): 25.33 mm^2
- Efficacy (%) ([11]; 500 mg/L): 30.09%
- Spot area (mm^2) ([11]; 500 mg/L): 24 mm^2
- LD50 ([12]; Female rat): > 2000 mg/kg
- LD50 ([12]; Male rat): > 2000 mg/kg
- Toxicity (acute skin test) [13]: Low toxicity
- Eye stimulation [14]: Mild stimulation on rabbit's eye
- LC50 (48 hrs) [15]: LC50 (48 hrs) > 100 μg a.i./per bee
- inhibitory activity on SCO compared with azoxystrobin [16]: much higher inhibitory activity
